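Test compounds were applied to cells in 96-well plates for 48 hours at 5 doses. GI50 = concentration required for 50% inhibition of growth.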 Activity calls are given as the source filed them. No stated cut-off is given here; in the data, active = GI50 up to about 1.1 µM and inactive = higher.
How the values were obtained:
Experiment in all cases: NCI tumour cell line growth inhibition, 48 h
UO-31 = test system: UO-31
CCRF-CEM = test system: CCRF-CEM
UACC-62 = test system: UACC-62
A549 = test system: A549
OVCAR-4 = test system: OVCAR-4
IGROV-1 = test system: IGROV-1
HOP-92 = test system: HOP-92
A498 = test system: A498
SK-MEL-28 = test system: SK-MEL-28
SK-MEL-5 = test system: SK-MEL-5
TK-10 = test system: TK-10
KM12 = test system: KM12
OVCAR-3 = test system: OVCAR-3
NCI/ADR-RES = test system: NCI/ADR-RES
MDA-MB-435 = test system: MDA-MB-435
SNB-75 = test system: SNB-75
MCF7 = test system: MCF7
PC-3 = test system: PC-3

| Structure (SMILES) | GI50 (UO-31) | GI50 (CCRF-CEM) | GI50 (UACC-62) | GI50 (A549) | GI50 (OVCAR-4) | GI50 (IGROV-1) | GI50 (HOP-92) | GI50 (A498) | GI50 (SK-MEL-28) | GI50 (SK-MEL-5) | GI50 (TK-10) | GI50 (KM12) | GI50 (OVCAR-3) | GI50 (NCI/ADR-RES) | GI50 (MDA-MB-435) | GI50 (SNB-75) | GI50 (MCF7) | GI50 (PC-3) |
| --- | --- | --- | --- | --- | --- | --- | --- | --- | --- | --- | --- | --- | --- | --- | --- | --- | --- | --- |
| C/C(=N/NC(=O)C[n+]1ccccc1)C(CN(CC(C)C)CC(C)C)C(=O)Nc1ccc(C)cc1C (stereo unspecified) | 15.1 µM (inactive) | > 100 µM (inactive) | > 100 µM (inactive) | > 100 µM (inactive) | > 100 µM (inactive) | > 100 µM (inactive) | 43.3 µM (inactive) | 25.4 µM (inactive) | > 100 µM (inactive) | > 100 µM (inactive) | 78.2 µM (inactive) | – | – | – | – | – | – | – |
| C=CC[C@@H]1C=C[C@@H](C(=O)OC)n2c(=O)n(-c3ccccc3)c(=O)n21 | > 100 µM (inactive) | > 100 µM (inactive) | > 100 µM (inactive) | – | > 100 µM (inactive) | > 100 µM (inactive) | > 100 µM (inactive) | > 100 µM (inactive) | > 100 µM (inactive) | > 100 µM (inactive) | > 100 µM (inactive) | > 100 µM (inactive) | > 100 µM (inactive) | > 100 µM (inactive) | > 100 µM (inactive) | > 100 µM (inactive) | > 100 µM (inactive) | – |
| COc1ccc(C2=NNC(=O)c3ccccc3N2c2nc(-c3cccs3)nc3ccc(Br)cc23)cc1 | > 100 µM (inactive) | 5.25 µM (inactive) | 64.1 µM (inactive) | 60.7 µM (inactive) | 39.8 µM (inactive) | 63.5 µM (inactive) | > 100 µM (inactive) | > 100 µM (inactive) | > 100 µM (inactive) | > 100 µM (inactive) | 28.2 µM (inactive) | 61.5 µM (inactive) | 23 µM (inactive) | 19.1 µM (inactive) | > 100 µM (inactive) | 41.4 µM (inactive) | 68.1 µM (inactive) | 24.7 µM (inactive) |
| Cc1ccc(S(=O)(=O)Oc2nc3nc4ccccc4nc3nc2OS(=O)(=O)c2ccc(C)cc2)cc1 | 53.7 µM (inactive) | 5.28 µM (inactive) | > 100 µM (inactive) | > 100 µM (inactive) | – | > 100 µM (inactive) | – | > 100 µM (inactive) | > 100 µM (inactive) | > 100 µM (inactive) | > 100 µM (inactive) | > 100 µM (inactive) | > 100 µM (inactive) | > 100 µM (inactive) | > 100 µM (inactive) | > 100 µM (inactive) | > 100 µM (inactive) | > 100 µM (inactive) |
| C[n+]1c(-c2ccc(/C=N/NC(=N)N/N=C/c3ccc(-c4cn5cc(Cl)ccc5[n+]4C)cc3)cc2)cn2cc(Cl)ccc21 | 69.8 µM (inactive) | > 100 µM (inactive) | – | > 100 µM (inactive) | > 100 µM (inactive) | > 100 µM (inactive) | – | – | > 100 µM (inactive) | > 100 µM (inactive) | > 100 µM (inactive) | > 100 µM (inactive) | – | > 100 µM (inactive) | > 100 µM (inactive) | > 100 µM (inactive) | > 100 µM (inactive) | > 100 µM (inactive) |
| CCOC(=O)c1ccc2nc(NC(=O)COC(=O)CSc3nc(C)cc(C)n3)sc2c1 | 13.9 µM (inactive) | 1.52 µM (inactive) | 25.8 µM (inactive) | 42.9 µM (inactive) | 42.9 µM (inactive) | 27 µM (inactive) | 24.8 µM (inactive) | 34 µM (inactive) | 97.3 µM (inactive) | 53.3 µM (inactive) | 29.3 µM (inactive) | > 100 µM (inactive) | 25.3 µM (inactive) | 48.4 µM (inactive) | > 100 µM (inactive) | 16.4 µM (inactive) | 35.9 µM (inactive) | 40.2 µM (inactive) |
| COC(=O)CN1SC2(SC13C(C)(C)C(=O)C3(C)C)C(C)(C)C(=O)C2(C)C | 86.3 µM (inactive) | 11.1 µM (inactive) | > 100 µM (inactive) | 51.2 µM (inactive) | > 100 µM (inactive) | 89.5 µM (inactive) | 0.0244 µM (active) | 30 µM (inactive) | > 100 µM (inactive) | 35.2 µM (inactive) | > 100 µM (inactive) | 44.6 µM (inactive) | 41.6 µM (inactive) | 34.1 µM (inactive) | 56.2 µM (inactive) | 37.8 µM (inactive) | 54.2 µM (inactive) | 29.2 µM (inactive) |
| CC12CCc3ccccc3C1=Nc1ccccc12 (stereo unspecified) | 24.3 µM (inactive) | 25.1 µM (inactive) | 29.4 µM (inactive) | 73.5 µM (inactive) | 41.3 µM (inactive) | 71.1 µM (inactive) | 12.9 µM (inactive) | – | 90.2 µM (inactive) | 12.6 µM (inactive) | 53.8 µM (inactive) | 24.1 µM (inactive) | 15.3 µM (inactive) | 22.4 µM (inactive) | 25.3 µM (inactive) | > 100 µM (inactive) | 48.6 µM (inactive) | 14.3 µM (inactive) |
| COc1ccc(/C=C/C(=O)c2sc(NC(=S)NC(=O)c3ccccc3F)nc2C)cc1OC | 37.3 µM (inactive) | 35.6 µM (inactive) | 85.9 µM (inactive) | > 100 µM (inactive) | – | > 100 µM (inactive) | 98.9 µM (inactive) | > 100 µM (inactive) | 66.7 µM (inactive) | 88.3 µM (inactive) | > 100 µM (inactive) | > 100 µM (inactive) | > 100 µM (inactive) | – | – | 26.5 µM (inactive) | – | – |

Source: ChEMBL document CHEMBL1201862, “PubChem BioAssay data set” (2004)
